In patent US20210040153A1, “OLIGOPEPTIDE HAVING DENGUE VIRUS REPLICATION INHIBITION FUNCTION AND APPLICATION THEREOF” (priority 2018, published 2021):

Experiments:
[1] = target: T1, NS5 (Dengue virus type 2, UniProt P14340); assay: affinity to full-length DENV NS5 recombinant protein (phage display peptide library screening); format: binding, DENV-2
T1 construct: His6 (C); made in house; host or cells: E. coli BL21 (DE3), pET 30a/NS5
Procedure: 1) The protein solution is diluted with 0.1 M NaHCO3 to 100 μg/mL. Each time, 0.7 mL of the protein solution is added dropwise to a (φ35 mm polyethylene culture dish, which is gently shaken to soak the dish, which is then coated overnight at 4° C., The coating solution is aspirated and discarded; 2 mL of a blocking solution is added, and left at 4° C. for 2 h; the blocking solution is discarded, and the plate is tap-dried; the plate is washed 6 times with TBST (TBS+0,1%[V/V]Tween−20), and tap-dried each time. […]
3) The eluted phage is added to 10 mL of the host bacterial Tet-LB culture solution (OD600 to 0.5) and then amplified; after 5 hours of culture, the culture solution is collected to purify the phage, and used for the next round of screening after the titer is measured. […]

[2] = system: DENV 2; assay: cell poisoning experiments: inhibition of DENV 2 replication; format: cell-based, dengue virus
[3] = system: dengue virus type 1; assay: inhibition of replication of dengue virus type 1; format: cell-based
[4] = system: dengue virus type 3; assay: inhibition of replication of dengue virus type 3; format: cell-based
[5] = system: dengue virus type 4; assay: inhibition of replication of dengue virus type 4; format: cell-based
[6] = system: dengue virus; assay: inhibition of dengue virus replication (serotype not given); format: cell-based; conditions: serotype not stated

KHGHHRH [Lys-His-Gly-His-His-Arg-His]
affinity for NS5 [1]: high specific affinity
inhibitory effect on the replication of DENV 2 virus [2]: significant inhibitory effect
inhibitory effect on the replication of dengue virus type 1 [3]: significant inhibitory effect
inhibitory effect on the replication of dengue virus type 3 [4]: significant inhibitory effect
inhibitory effect on the replication of dengue virus type 4 [5]: significant inhibitory effect
inhibitory effect on dengue virus replication [6]: highly effective inhibitory effect
inhibitory effect on dengue virus replication ([6]; listed as oligopeptide): effectively inhibit
